The values that follow come from patent US20100063156A1, “ANANDAMIDE” (priority 2006, published 2010).

Assay [1] deals with Sprague-Dawley rats. Put plainly: Food intake in rats after intragastric infusion of anandamide. The assay is classed as in vivo, rat. The settings on record: for 9-h cumulative food intake: intragastric infusion in sunflower oil, rats food-deprived 15 h, control 27.1 g. Here is the method:
An experiment was conducted to measure the effect of different levels of anandamide intake on food intake in rats. Thirteen adult male Sprague-Dawley rats (Charles River, Germany) were surgically equipped with a chronic gastric cannula. Animals were individually housed in plastic cages (42×22×36 cm) with stainless steel grid floors in a temperature-controlled (22±2° C.) room. The 12:12-h light-dark cycle was inversed (lights off 09:00 h).
Rats had free access to water and restricted access to ground extruded feed (No. 3436, Provimi Kliba-nafag, Kaiseraugst, Switzerland). To prevent spoilage of food, it was placed in cups at the end of a tunnel (5×10×30 cm) that protruded from the side of the cage, with its bottom 5 cm above the cage floor. Food cups were mounted on electronic balances (Mettler PM 3000, Switzerland) that were interfaced with a computer (Olivetti M 300, Germany). Weights of the food cups were recorded the every 30 s, enabling continuous measurement of spontaneous feeding patterns. Anandamide (98% purity, dissolved in ethanol) was obtained from Cayman Chemical Company, Michigan, USA). It was stored deep-frozen, until the experiment. Than the proper quantity was mixed into sunflower oil.
Before starting the experimental period, rats (394±7 g) were adapted to the restricted food access. One day prior to the test, they were also adapted to infusion of sunflower oil. The experimental period lasted five consecutive days. During the experiment, rats were deprived from food each day for 15 h (18.00-9.00 h). […] Each of these doses was given to three rats. One rat was excluded from the experiment after 2 days, and a spare animal was included.

The test system of assay [2] is test animals. The settings on record: introduced into the blood stream; neither decreased nor increased food intake; cited from earlier work.
Assay [3] deals with rats. The note with it: anandamide introduced by injection (Williams & Kirkham 2002); cited from earlier work.

With `CCCCC/C=C\C/C=C\C/C=C\C/C=C\CCCC(=O)NCCO` [anandamide, arachidonyl-ethanolamide], the “9-h cumulative food intake” value in assay [1] (2.5 mg anandamide/d) turned out to be 25.8 g; in assay [1] (5.0 mg anandamide/d), 27.6 g; in assay [1] (7.5 mg anandamide/d) it was 23.0 g. For the same compound, the “food intake compared to the control” value is listed as “did not affect food intake” in assay [1] (2.5 mg/d, intragastric); “reduced food intake significantly” in assay [1] (5.0 mg, 3 through 6 hours after infusion, P<0.001, difference disappeared later); “lower food intake persisted until 9 h post-infusion” in assay [1] (7.5 mg/d, until 9 h post-infusion). The “food intake calculated as a mean over the 9-h period” value in assay [1] (5.0 mg versus 0 or 2.5 mg anandamide) and in assay [1] (7.5 mg versus 0 or 2.5 mg anandamide) was “significantly lower” in each case. In addition, the “9-h cumulative food intake, significance versus other treatments” value in assay [1] (7.5 mg anandamide/d versus 0, 2.5 and 5.0 mg) is “significantly different from the other treatments”. The voluntary food intake result in assay [2] is reported as “ineffective”. The “appetite / feeding effect” value in assay [3] is “Appetite stimulating effects were found”.
